Assays:
[1] = test system: tetradecanoylphorbol 13-acetate (TPA) induced ear edema; test: TPA-induced ear edema model; assay type: in vivo, mice; settings: for AUC reduction (%) TPA: 10 μg one single s.c. injection 20 minutes before TPA, compared to PBS control; for Peak reduction (%) TPA: 10 μg subcutaneously 20 minutes before induction of edema
Description: A stock solution of TPA was prepared by dissolving TPA in DMSO, 1 mg/mL, and was stored frozen at −80° C. For study B-E, a working solution was prepared with 200 μL of the TPA stock solution added to 800 μL acetone. The working solution was used the same day as it was prepared.
Each cage was identified by a cage card marked with study number, group number, ethical approval number, sex and animal ear numbers. The animals were individually marked on the tail with transverse lines corresponding to the animals' number, using a permanent-ink felt pen. An illustration of the protocols used for the different treatments is outlined in Table 4. The compounds were tested according to the same protocols with necessary modifications.
Intraperitoneal (i.p.) injections were performed by giving 100 μL in the lower right quadrant of the abdomen. Subcutaneous injections were done with 100 μL in the neck region. Intranasal administration was performed by letting the mouse inhale droplets into the nostrils, total volume 40 μL. All administrations were done on non-anesthetized mice.
(§1) Both outer ears of a non-anesthetized mouse were washed with mild soap (Palmolive, Sweden) using a soft tooth brush, the ears were dried with tissue and cleaned with tissue soaked with acetone. After allowing the acetone to evaporate, TPA or AA was applied on both sides, 10 μL, on each side of the ear with care to cover the whole ear. The mouse was held for 20 seconds to allow the solvent to evaporate.
Intraperitoneal injections were given in the lower right quadrant of the abdomen with the animal held in a supine position. Subcutaneous (s.c.) injections were given in the neck of the animals. Intranasal administrations were given to mice held in a slightly reclining position. With an adjustable micro-pipette 40 μL of the test substance was given in droplets on the nostrils and the mouse was allowed to aspirate at free will.
(§2) The ears of non-anesthetized mice were measured at different time points for up to 96 hours after the TPA was administered, or up to 24 hours for the AA model. The first measurements were done before the edema was induced. The thickness was recorded with a spring loaded dial micrometer (Limit, Thickness Gauge, accuracy 0.01 mm, contact area Ø6 mm, Luna AB, Allingsås, Sweden) in triplicates at all time points per ear.
(§3) The average thickness for both ears on a mouse was calculated and compared to the average thickness of the ears at the starting time point. The value obtained at the start of the experiment was set as 100%. The peak values and area under the curve (AUC) values for the treatment groups were calculated and compared to the inflamed control group, treated with PBS (set as 100%), and expressed as a percentage change (Δ% AUC).
(§4) Area under the curve (AUC) with base line set as 100 was calculated using GraphPad Prism version 4.03 for Windows (GraphPad Software, San Diego Calif. USA, www.graphpad.com).
AUC reduction and P-values were calculated against the positive control (TPA or AA+PBS).

[2] = test system: OVA induced airway inflammation; test: Ovalbumin (OVA) induced allergic airway inflammation, BAL fluid cell counts; assay type: in vivo, Balb/c mice; settings: prophylactic protocol, 50 μg/animal intranasal on day 16 and 21; for cell migration into BAL fluid: second experiment
Description: Mice were sensitized intraperitoneally with 200 μL OVA/aluminium hydroxide gel (1:3) on day 0 and 12 (see FIG. 6). OVA (chicken egg albumin grade V, Sigma, St. Louis, Mo.) was dissolved in saline and mixed with aluminium hydroxide gel to a concentration of 50 μg/mL by rotation at 4° C. for 3 h. On days 23, 26, 30 and 33 (see FIG. 6), mice were challenged in the lungs by inhalation of aerosolized OVA for 30 minutes using a Batelle exposure chamber. Aerosols were generated by a compressed-air nebulizer (Collison 6-jet) at airflow 7.4 L/min using a nebulizer concentration of 10 mg/mL OVA dissolved in PBS (Sigma, St Louis, Mo., USA). The control group with non-sensitized animals received no other treatment than aerosolized OVA at days 23, 26, 30 and 33.
In this OVA model (FIG. 6), a total of 4 oligonucleotides were tested, IDX9025, IDX9038, IDX9053 (Table 1, SEQ ID NO 2-4) and IDX0150 (Table 3, SEQ ID NO 11). The oligonucleotides were synthesized by biomers.net GmbH, Ulm, Germany and stored frozen at −20° C. The oligonucleotides were diluted with PBS to the working concentration (1,247 μg/μL) and kept at −20° C. until the first day of instillation, thereafter they were placed at 4° C.
In a first experiment, both prophylactic and therapeutic protocols were tested (see FIG. 6). The drug treatment consisted of intranasal instillations of IDX0150 (1,247 μg/μL, provided by InDex Pharmaceuticals AB, Stockholm, Sweden) on days 16 and 21 (prophylactic protocol), on days 30 and 33 (therapeutic protocol A) or on days 30 and 34 (therapeutic protocol B). The instillations in the therapeutic protocols (A & B) on days 30 and 33 were given 4 h after aerosol challenge. The second instillation in protocol B on day 34 was given 24 h after the last aerosol challenge. The drug was administered in 40 μL PBS giving a dose of ˜50 μg/mice (49.88 μg/mice). The two sensitized sham-treatment groups were instilled with PBS, the same total volume as for the treatment groups, according to either the prophylactic protocol (days 16 and 21) or to the therapeutic protocol A (days 30 and 33).
In a second experiment, since administration of IDX0150 in the first experiment using prophylactic protocol (FIG. 6) gave a significant reduction of airway inflammation (FIG. 7), three other substances were tested with the same protocol. The drug treatment consisted of intranasal instillations of IDX9025, IDX9038 and IDX9053 (Table 1) (1,247 μg/μL, provided by InDex Pharmaceuticals AB) on days 16 and 21 (see FIG. 6, prophylactic protocol). All substances were administered in 40 μL PBS giving a dose of ˜50 μg/mice (49.88 μg/mice). The two sensitized sham-treatment groups were instilled with PBS, the same total volume as for the treatment groups, according to the prophylactic protocol (days 16 and 21).
Mice were killed by cervical dislocation 42 h after the last OVA aerosol challenge. The trachea was cannulated with polyethylene tubing (Becton Dickinson, Sparks, Md., USA) and bronchoalveolar lavage (BAL) was performed using 4×1 mL aliquots of ice-cold Hank's balanced salt solution (HBSS) (Sigma, St Louis, Mo., USA). The BAL fluid was centrifuged (400 g, 10 min, 4° C.) and the BAL fluid cells were resuspended in 0.4 mL PBS. The total number of leukocytes counted using tryphan blue exclusion in a Barker chamber. Duplicate Cytospin (Cytospin 3, Shandon, Runcorn, UK) preparations of BAL fluid cells were stained with May Grünewald Giemsa for differential counts, using standard morphological criteria.
Statistical comparisons were performed using One-way analysis of variance (ANOVA) using Dunnett's post hoc correction to compare with sensitized PBS treated control mice (GraphPad Prism 3). Data are shown as mean±standard deviation. P<0.05 was considered significant.

[3] = test system: arachidonic acid (AA) induced ear edema; test: Arachidonic acid (AA) induced ear edema model; assay type: in vivo, mice
Description: A stock solution of AA was prepared by diluting AA in acetone, 4 mg/10 μL, and was stored frozen at −80° C. A final working solution, 1 mg/10 μL, in acetone was prepared. The working solution was used within one hour after preparation.
as §1, §2, §3, §4
In addition to the experiments done with the control compounds and IDX0001, all other test compounds were investigated in a similar fashion in the TPA and/or AA ear edema models, where the test compounds were given subcutaneously (10 μg) 20 minutes before induction of edema. The results were expressed as reduction of peak value and reduction of area under curve (AUC) in Table 5.

Substance	AUC reduction (%) TPA [1] [%]	Peak reduction (%) TPA [1] [%]	cell migration into BAL fluid [2]	migration of eosinophils into the BAL fluid ([2]; P<0.001)	migration of leukocytes into the BAL fluid ([2]; P<0.05)	AUC reduction (%) AA ([3]; 10 μg one single s.c. injection 20 minutes before AA, compared to PBS control) [%]	Peak reduction (%) AA ([3]; 10 μg subcutaneously 20 minutes before induction of edema) [%]
G*G*G*TCGTCTG*C*G*G (GGGTCGTCTGCGG; DNA, linkages s3 o6 s3 (s phosphorothioate, o phosphodiester), methylation of C not given here) [IDX9053]	−39.0	−30.5	no significant reduction of cell migration	–	–	–	–
T*C*G*TCGTTCGGCCGATCG*T*C*C (TCGTCGTTCGGCCGATCGTCC; DNA, linkages s3 o14 s3 (s phosphorothioate, o phosphodiester), methylation of C not given here) [IDX9038, oligonucleotide; * = phosphorothioate modification]	−47.4	−37.9	–	significantly reduce	significantly reduce	–	–
T*G*C*CATTCGTCGATTTCGTC*G*A*T (TGCCATTCGTCGATTTCGTCGAT; DNA, linkages s3 o16 s3 (s phosphorothioate, o phosphodiester), methylation of C not given here) [IDX9025, oligonucleotide; * = phosphorothioate modification]	−57.8	−23.5	no significant reduction of cell migration	–	–	−81.9	−14.9

Source: patent US8410068B2, “Compounds for the treatment or alleviation of edema, and methods for their use” (Index Pharmaceuticals AB, priority 2007, dated 2013)
